Measured values published in the supplement of paper PMC10307832.

Columns and labels:
Experiment in all cases: relative viability (nuclei count vs DMSO), 5 days (fraction); higher = more cells survive
EHT 1864 + Vorinostat = compound: C1COCCN1CC2=CC(=O)C(=CO2)OCCCCCSC3=C4C=CC(=CC4=NC=C3)C(F)(F)F [EHT 1864] + O=C(CCCCCCC(=O)Nc1ccccc1)NO [Vorinostat] (partner 1 µM)
Method in brief: (§1)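 Lung cancer cell lines in 1536-well plates got either a single drug or a fixed anchor-drug dose together with five library-drug doses (not always all listed) in √10 steps, by pin tool, on the day after seeding. Nuclei were counted after 5 days, and relative viability is the treated-to-vehicle ratio of nuclei counts. Values are medians of duplicate plates.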

EHT 1864 + Pemetrexed = compound: C1COCCN1CC2=CC(=O)C(=CO2)OCCCCCSC3=C4C=CC(=CC4=NC=C3)C(F)(F)F [EHT 1864] + Nc1nc2[nH]cc(CCc3ccc(C(=O)N[C@@H](CCC(=O)O)C(=O)O)cc3)c2c(=O)[nH]1 [Pemetrexed] (partner 0.2 µM)
Method in brief: as §1

EHT 1864 + Dasatinib = compound: C1COCCN1CC2=CC(=O)C(=CO2)OCCCCCSC3=C4C=CC(=CC4=NC=C3)C(F)(F)F [EHT 1864] + Cc1nc(Nc2ncc(C(=O)Nc3c(C)cccc3Cl)s2)cc(N2CCN(CCO)CC2)n1 [Dasatinib] (partner 0.075 µM)
Method in brief: as §1

EHT 1864 + Palbociclib = compound: C1COCCN1CC2=CC(=O)C(=CO2)OCCCCCSC3=C4C=CC(=CC4=NC=C3)C(F)(F)F [EHT 1864] + CC(=O)c1c(C)c2cnc(Nc3ccc(N4CCNCC4)cn3)nc2n(C2CCCC2)c1=O [Palbociclib] (partner 0.5 µM)
Method in brief: as §1

Row | Cell Line | relative viability (EHT 1864 + Vorinostat; first compound 0.1265 µM) | relative viability (EHT 1864 + Vorinostat; first compound 0.4 µM) | relative viability (EHT 1864 + Vorinostat; first compound 1.265 µM) | relative viability (EHT 1864 + Vorinostat; first compound 4 µM) | relative viability (EHT 1864 + Pemetrexed; first compound 0.1265 µM) | relative viability (EHT 1864 + Pemetrexed; first compound 0.4 µM) | relative viability (EHT 1864 + Pemetrexed; first compound 1.265 µM) | relative viability (EHT 1864 + Pemetrexed; first compound 4 µM) | relative viability (EHT 1864 + Dasatinib; first compound 0.04 µM) | relative viability (EHT 1864 + Dasatinib; first compound 0.1265 µM) | relative viability (EHT 1864 + Dasatinib; first compound 0.4 µM) | relative viability (EHT 1864 + Dasatinib; first compound 1.265 µM) | relative viability (EHT 1864 + Dasatinib; first compound 4 µM) | relative viability (EHT 1864 + Palbociclib; first compound 0.1265 µM) | relative viability (EHT 1864 + Palbociclib; first compound 0.4 µM) | relative viability (EHT 1864 + Palbociclib; first compound 1.265 µM) | relative viability (EHT 1864 + Palbociclib; first compound 4 µM) | relative viability (EHT 1864 + Vorinostat; first compound 0.04 µM) | relative viability (EHT 1864 + Pemetrexed; first compound 0.04 µM) | relative viability (EHT 1864 + Palbociclib; first compound 0.04 µM)
1 | NCI-H460 | 0.718 | 0.703 | 0.654 | 0.647 | 0.0604 | 0.0667 | 0.0607 | 0.0677 | 0.516 | 0.405 | 0.565 | 0.532 | 0.54 | 0.155 | 0.16 | 0.16 | 0.173 |  |  | 
2 | NCI-H520 | 0.628 | 0.696 | 0.758 | 0.715 | 0.588 | 0.758 | 0.627 | 0.604 | 0.218 | 0.171 | 0.205 | 0.211 | 0.192 | 0.212 | 0.258 | 0.225 | 0.231 | 0.734 | 0.67 | 0.227
3 | NCI-H522 | 0.738 | 0.901 | 0.893 | 1.03 | 0.75 | 0.977 | 1.16 | 1.18 | 0.919 | 0.724 | 1.04 | 0.812 | 0.875 | 1.02 | 0.948 | 1 | 1.05 | 0.76 | 1.29 | 1.11
4 | NCI-H647 | 0.455 | 0.512 | 0.762 | 0.485 | 0.13 | 0.164 | 0.157 | 0.177 | 0.193 | 0.121 | 0.168 | 0.179 | 0.204 | 0.351 | 0.451 | 0.373 | 0.375 | 0.612 | 0.203 | 0.414
5 | NCI-H650 | 0.308 | 0.413 | 0.457 | 0.478 | 0.75 | 0.968 | 0.947 | 0.927 | 0.427 | 0.381 | 0.427 | 0.459 | 0.459 | 0.256 | 0.346 | 0.327 | 0.325 | 0.497 | 0.975 | 0.332
6 | NCI-H661 | 0.685 | 0.773 | 0.697 | 0.712 | 0.884 | 0.871 | 0.844 | 0.682 | 0.883 | 0.828 | 0.919 | 0.8 | 0.725 | 0.389 | 0.41 | 0.381 | 0.352 | 0.836 | 0.904 | 0.4
7 | NCI-H838 | 0.668 | 0.74 | 0.723 | 0.727 | 0.236 | 0.236 | 0.233 | 0.219 | 0.207 | 0.252 | 0.304 | 0.277 | 0.269 | 0.185 | 0.266 | 0.223 | 0.244 | 0.713 | 0.249 | 0.208
8 | NCI-H1355 | 0.548 | 0.633 | 0.619 | 0.696 | 0.872 | 1.02 | 1.1 | 0.985 | 0.676 | 0.535 | 0.73 | 0.561 | 0.725 | 0.357 | 0.391 | 0.389 | 0.414 | 0.659 | 1.14 | 0.411
9 | NCI-H1395 | 0.552 | 0.819 | 0.607 | 0.681 | 0.73 | 0.89 | 0.805 | 0.915 | 0.48 | 0.386 | 0.426 | 0.418 | 0.407 | 0.595 | 0.631 | 0.57 | 0.614 | 0.775 | 0.923 | 0.61
10 | NCI-H1437 | 0.866 | 0.757 | 0.542 | 0.479 | 0.302 | 0.263 | 0.286 | 0.246 | 0.453 | 0.387 | 0.342 | 0.235 | 0.248 | 0.293 | 0.309 | 0.236 | 0.302 | 0.84 | 0.321 | 0.311
11 | NCI-H1650 | 0.54 | 0.592 | 0.623 | 0.521 | 0.327 | 0.331 | 0.36 | 0.358 |  |  | 0.36 | 0.271 | 0.377 | 0.31 | 0.273 | 0.378 | 0.277 | 0.529 | 0.384 | 0.375
12 | NCI-H1651 | 0.541 | 0.554 | 0.561 | 0.599 | 0.662 | 0.565 | 0.553 | 0.55 | 0.407 | 0.425 | 0.332 | 0.37 | 0.471 | 0.501 | 0.534 | 0.504 | 0.522 | 0.55 | 0.529 | 0.529
13 | NCI-H1666 | 0.987 | 0.899 | 0.986 | 1.05 | 0.831 | 0.896 | 0.786 | 0.843 | 0.86 | 0.805 | 0.746 | 0.745 | 0.795 | 0.611 | 0.667 | 0.583 | 0.636 | 1.02 | 1.02 | 0.644
14 | NCI-H1734 | 0.532 | 0.818 | 0.751 | 0.837 | 0.385 | 0.463 | 0.394 | 0.432 | 0.497 |  | 0.523 | 0.528 | 0.502 | 0.314 | 0.337 | 0.337 | 0.356 | 0.94 | 0.45 | 0.411
15 | NCI-H1755 | 0.808 | 0.748 | 0.75 | 0.811 | 0.376 | 0.389 | 0.468 | 0.388 | 0.424 | 0.333 | 0.425 | 0.369 | 0.399 | 0.437 | 0.42 | 0.43 | 0.42 | 1 | 0.477 | 0.46
16 | NCI-H1793 | 0.403 | 0.768 | 0.879 | 0.935 | 0.699 | 0.929 | 0.814 | 0.828 | 0.307 |  | 0.304 |  | 0.419 | 0.281 | 0.315 | 0.28 | 0.373 | 0.656 | 0.674 | 0.242
